Reference: patent publication US11366101B1, “Ex vivo systems and methods for determining the effect of a drug or other agent on a tissue” (Elephas Biosciences Corporation, priority 2020, dated 2022)
Values belong to the compound of their own block, whether it stands above or below them.

What was measured:
EMT6 tumor fragments [1] = assay: Label-free MP-FLIM of NAD(P)H fluorescence lifetime in cultured tumor fragments; format: cell-based, mouse; conditions: 24 hours of exposure vs 0 h, p<0.002
Protocol: Live EMT6 tumors were cut into tissue fragments that were then sorted and cultured in glass-bottomed multi-well plates. To induce cancer cell death, one group was treated with the multi-kinase inhibitor, staurosporine (STS), and the control group was treated with the vehicle (Veh). Before (0 h) and after treatment (24 h), the structure and metabolic status of tumor fragments were imaged based on the intrinsically fluorescent metabolic co-factor nicotinamide dinucleotides (NAD(P)H) fluorescence intensity and lifetime using MP-FLIM by time-correlated single photon counting. The data was analyzed by fitting fluorescence decay curves with dual exponents. […] Each dot represents one fragment.

EMT6 tumor fragments [2] = assay: NAD(P)H intensity multiphoton microscopy versus propidium iodide viability ground truth in cultured tumor fragments; format: cell-based, mouse; conditions: after 24 h, treated versus untreated
Protocol: Live EMT6 tumors were cut into tissue fragments that were then sorted and cultured in glass-bottomed multi-well plates. To induce cancer cell death, one group was treated with the multi-kinase inhibitor, staurosporine (STS), and the control group was untreated. After 24 h, the structure and metabolic status of tumor fragments were imaged based on the intrinsically fluorescent metabolic co-factor nicotinamide dinucleotides (NAD(P)H) fluorescence intensity using multiphoton microscopy with 720 nm excitation. […] For structural reference, the second harmonic generation was also imaged (blue).

live tumor fragment = assay: Diffusion of a small molecule drug and an antibody into a live tumor fragment (fluorescence imaging); format: in vitro ADME; conditions: live tumor fragment cultured at 37° C., time after addition
Protocol: Notable was gradual appearance of doxorubicin-characteristic fluorescence first in the periphery of tissue fragment at 15 minutes followed by full-thickness staining of the entire fragment area at 2 hours. […] Notable is plateau staining within about 5 h. As noted by this experiment, both small molecule drugs and large antibodies diffused into the live tissue fragments.

CT26 tumor fragments = assay: Supernatant cytokines of live tumor fragments by LEGENDPlex bead immunoassay, mouse; format: cell-based; conditions: mouse specimens, cultured 48 or 72 h
Protocol: (§1) Human tumor excisions were obtained from the University of Wisconsin (Institutional Review Board (IRB) approved) and CT26 tumors were grown in mice. Tumor excisions were cut into […] live tumor fragments of 100-300 μm thickness, sorted into multi-well plates, and cultured for 48 or 72 h in the presence or absence of anti-PD1 (nivolumab or mouse equivalent), anti-PD1 plus anti-CTLA4 (ipilimumab or mouse equivalent), or concanavalin A (ConA) as a positive control. Cell viability was ascertained by ATP luminescence assay or flow cytometry (not shown). Supernatant cytokines were measured using LEGENDPlex bead immunoassay. […] The presence of cytokines was greater in wells with 10 fragments than in wells with 3 fragments, indicating suitability of culture conditions.

[3] = system: human live tumor fragments; assay: Supernatant cytokines of live tumor fragments by LEGENDPlex bead immunoassay, human; format: cell-based; conditions: cultured 48 or 72 h; for presence of IFN-γ and cytokines associated with immune activation relative to the untreated control: human samples
Protocol: as §1

Compound: CN[C@@H]1C[C@H]2O[C@@](C)([C@@H]1OC)n1c3ccccc3c3c4c(c5c6ccccc6n2c5c31)C(=O)NC4 [staurosporine]
NAD(P)H short lifetime component (a1) (EMT6 tumor fragments [1]): concomitant decrease
whole fragment NAD(P)H mean lifetime (tm) (EMT6 tumor fragments [1]): statistically significant increase
PI-stained nuclei (dead cells) (EMT6 tumor fragments [2]): increased numbers of PI-stained nuclei
NAD(P)H intensity (EMT6 tumor fragments [2]; 720 nm excitation): loss of NAD(P)H intensity

appearance of doxorubicin-characteristic fluorescence in the periphery of tissue fragment (live tumor fragment): 15 min
full-thickness staining of the entire fragment area (live tumor fragment): 2 h
Compound: COc1cccc2c1C(=O)c1c(O)c3c(c(O)c1C2=O)C[C@@](O)(C(=O)CO)C[C@@H]3O[C@H]1C[C@H](N)[C@H](O)[C@H](C)O1 [doxorubicin]

Compound: anti-PD1: immunotherapy drug anti-PD1 (nivolumab or mouse equivalent)
presence of IFN-γ and cytokines associated with immune activation, fold increase in relation to the untreated control (CT26 tumor fragments): greater presence of IFN-γ and 10 cytokines
cytokine panel upregulation, fold increase relative to untreated control ([3]; human LTFs): cytokine panel upregulation was observed
presence of IFN-γ and cytokines associated with immune activation relative to the untreated control [3]: greater presence of IFN-γ and 16 cytokines

Compound: concanavalin A [ConA]
presence of IFN-γ and cytokines associated with immune activation relative to the untreated control [3]: greater presence of IFN-γ and 16 cytokines
